Test results taken from ChEMBL document CHEMBL1671736, “In vivo efficacy of anidulafungin against mature Candida albicans biofilms in a novel rat model of catheter-associated Candidiasis” (2010).
Values after ≈ are worked out from the molar mass of the structure shown. Active and inactive are the calls of the source. No cut-off for these calls is given here. *1 amine or outer side, *2 acyl side, *3 side chain or, on linkers, in order; H or OH if unused. Where a SMILES comes first, the peptide text is derived from it. Bridges are numbered along the chain shown (N, C = ends). [ ]: non-standard residue; d: D form. The star is where a group is joined. pTerphenylCO(4''-OnC5H11) = CCCCCOc1ccc(-c2ccc(-c3ccc(C(=O)*)cc3)cc2)cc1; Orn(4R-OH,5R-OH) = O=C([C@H](C[C@@H](O)[C@@H](O)N[*:3])N[*:1])[*:2]; hTyr(3S-OH,4S-OH) = N[C@H](C(=O)O)[C@H](O)[C@@H](O)c1ccc(O)cc1; Pro(3S-OH,4S-Me) = C[C@H]1CN[C@H](C(=O)O)[C@H]1O; Hyp = O=C(O)[C@@H]1C[C@@H](O)CN1

Tests used:
[1] = system: Candida albicans; test: Antimicrobial activity against Candida albicans SC5314 assessed as reduction of biofilm metabolic activity in in vitro catheter-associated rat model at 64 ug/ml by XTT assay; format: functional, organism-based
[2] = system: Candida albicans; test: Antimicrobial activity against Candida albicans SC5314 biofilms infected in Sprague-Dawley rat implanted subcutaneously with catheter fragments challenged Candida cells assessed as […] at 125 mg/kg, ip qd for 7 days (Rvb=2.92 +/- 0.34 log10 CFU/catheter fragment); format: functional
[3] = system: Candida albicans; test: Antimicrobial activity against Candida albicans SC5314 assessed as reduction of biofilm metabolic activity in in vitro catheter-associated rat model by XTT assay; format: functional
[4] = system: Candida albicans; test: Antimicrobial activity against Candida albicans SC5314 biofilms infected in Sprague-Dawley rat implanted subcutaneously with catheter fragments challenged Candida cells assessed as […] at 10 mg/kg, ip qd for 7 days (Rvb=2.92 +/- 0.34 log10 CFU/catheter fragment); format: functional

OC(Cn1cncn1)(Cn1cncn1)c1ccc(F)cc1F [FLUCONAZOLE]
Activity [1]: inactive
log10cfu [2]: 3.01

CCCCCOc1ccc(-c2ccc(-c3ccc(C(=O)N[C@H]4C[C@@H](O)[C@@H](O)NC(=O)[C@@H]5[C@@H](O)[C@@H](C)CN5C(=O)[C@H]([C@@H](C)O)NC(=O)[C@H]([C@H](O)[C@@H](O)c5ccc(O)cc5)NC(=O)[C@@H]5C[C@@H](O)CN5C(=O)[C@H]([C@@H](C)O)NC4=O)cc3)cc2)cc1 [ANIDULAFUNGIN] ({pTerphenylCO(4''-OnC5H11)}-[Orn(4R-OH,5R-OH)]T[Hyp][hTyr(3S-OH,4S-OH)]T[Pro(3S-OH,4S-Me)]; lactam 1-C)
MIC [3]: 0.25 µg/mL (≈ 0.219 µM)
log10cfu [4]: 2.14
